# Data published in paper PMC8333425, “Discovery of a dual Ras and ARF6 inhibitor from a GPCR endocytosis screen” (Nature Communications, 2021).
# “And” between values parts separate entries of the source, which are not always exact repeats. Equal entries are not always repeated.
# How the values were obtained:
# Test in all cases: Ras BRET sensor in cells overexpressing K-Ras mutants (Y32A, Y40A, Y32A/Y40A) and AT1R
# [1] = biological target: T1, K-Ras Y32A, Y40A, Y32A/Y40A (Homo sapiens, UniProt P01116, Y32A/Y40A); type: cell-based; conditions: Rasarfin 50 μM, K-Ras Y32A/Y40A, Bonferroni's multiple comparisons test
# T1 construct: expressed in transfected cells; host or cells: HEK293SL
# Text: (§1) Because Tyr32 and Tyr40, located on the switch I domain of Ras, are critical for stabilizing Rasarfin binding through interactions with both the chlorine and isopropyl moiety (Fig. 7a, c), we reasoned that substituting them for Ala residues would negatively impact Rasarfin’s inhibitory action on Ras. […] Because we wanted to assess the inhibitory action of Rasarfin over different Ras subtypes, we mutated the two tyrosine residues to an alanine in K-Ras (Y32A, Y40A, and Y32A/Y40A mutants) within the same Rasarfin binding site found in H-Ras (Lys^5-Thr^74). This domain and residues are perfectly conserved among the Ras family members[44],[45]. WT K-Ras and K-Ras mutants were overexpressed along with AT1R in cells and AngII-mediated activation of Ras was assessed using the Ras BRET sensor (Supplementary Fig. 11a).
# (§2) HEK293SL cells were seeded at a density of 7.5 × 10^5 cells per 100-mm dish and 24 h later, transiently transfected as such. For receptor internalization experiments, cells were transfected with 0.12 μg AT1R-RlucII, B2R-RlucII, or β2AR-RlucII and 0.48 μg of either rGFP-CAAX (to assess removal from the PM) or rGFP-FYVE (to assess accumulation in the endosomes). For β-arrestin recruitment assays, cells were transfected with 0.48 μg of receptor-YFP along with 0.12 μg of β-arrestin-RlucII. For β-arrestin/AP-2 binding experiments, cells were transfected with 1 μg Flag-AT1R, 1 μg β2-Adaptin-YFP, and 0.12 μg β-arrestin2-RlucII. For G protein activation, cells were transfected with 3 μg of sp-Flag-AT1R along with either 4.5 μg of the Gαq-polycistronic BRET sensor or 0.24 μg of the Gαi3-RlucII and 0.6 μg of GFP10-Gγ2 and Gβ1 sensors or 0.12 μg PKN-RBD-RlucII and 0.48 μg of rGFP-CAAX. For PKC activation, cells were transfected with 3 μg of sp-Flag-AT1R and 0.18 μg of the PKC sensor. For GTPase activation experiments, cells were transfected with 1 μg Flag-AT1R, 0.48 μg of rGFP-CAAX, and either 0.12 μg of GGA3-PBD-RlucII, PAK-CRIB-RlucII or Raf-RBD-RlucII. For biosensor validation experiments, cells were additionally transfected with 500 ng Flag-K-Ras-WT, Flag-K-Ras-G12V, Flag-K-Ras-SOS-CAAX, HA-ARF6-WT, HA-ARF6-T27N, Myc-Rac1-WT, Myc-Rac1-Q61L or Myc-Rac1-T17N. For PI3K/Akt activation experiments, cells were transfected with 0.48 μg of rGFP-CAAX and 0.12 μg of Akt (PH)-RlucII. After 18 h of transfection, the media was replaced and cells were divided for subsequent experiments. Cells were detached and seeded onto poly-L-ornithine-coated 96-well flat white bottom plates (BrandTech Scientific) at a density of 2.5 × 10^4 cells per well in media. The next day, cells were washed once with Tyrode’s buffer (140 mM NaCl, 2.7 mM KCl, 1 mM CaCl2, 12 mM NaHCO3, 5.6 mM D-glucose, 0.5 mM MgCl2, 0.37 mM NaH2PO4, 25 mM HEPES, pH 7.4) and left in Tyrode’s buffer. For kinetics of β-arrestin recruitment or β-arrestin binding to receptor and AP-2 experiments, cells were serum starved for 30 min, pretreated with 21 (50 µM) or Barbadin (100 µM) for 30 min, stimulated with 100 nM AngII or 1 µM BK and BRET signals were monitored at indicated times using a Victor X Light plate reader (PerkinElmer). Coelenterazine H (final concentration of 5 µM) was added 3–5 min prior to BRET measurements. Filter set was 460/80 nm and 535/30 nm for detecting the RlucII Renilla luciferase (donor) and YFP (acceptor) light emissions, respectively. The BRET ratio was determined by calculating the ratio of the light emitted by YFP over the light emitted by the RlucII. For G protein activation, cells were serum starved, pretreated with compounds for 30 min, stimulated with 100 nM AngII for 2 min (Gαq, Gαi3, and Rho sensors) or 5 min (PKC sensor). For the kinetics of GTPase and PI3K/Akt activation, cells were serum starved, pretreated with 21 (50 µM) or Wortmannin (200 nM) for 30 min, stimulated with ligand (100 nM AngII or 100 ng/ml EGF) and BRET signals were monitored at indicated times. […]
# [2] = test system: K-Ras Y32A, Y40A, Y32A/Y40A; type: cell-based, human; conditions: 50 μM
# Text: as §1, §2
# [3] = biological target: T2, K-Ras Y32A, Y40A, Y32A/Y40A (Homo sapiens, UniProt P01116, Y40A); type: cell-based; conditions: Rasarfin 50 μM, K-Ras Y40A
# T2 construct: expressed in transfected cells; host or cells: HEK293SL
# Text: as §1, §2
# [4] = biological target: T3, K-Ras Y32A, Y40A, Y32A/Y40A (Homo sapiens, UniProt P01116, Y32A); type: cell-based; conditions: Rasarfin 50 μM, K-Ras Y32A
# T3 construct: expressed in transfected cells; host or cells: HEK293SL
# Text: as §1, §2
# [5] = Bonferroni's multiple comparisons test
compound,measurement,setting,value
CC(C)C(=O)N1CCN(c2ccc(NC(=O)c3cc4ccccc4o3)cc2Cl)CC1 [Compound 21],"AngII-promoted BRET, Mean Diff. DMSO - Rasarfin",[1],0.004167
same,"AngII-mediated activation of K-Ras Y32A, Y40A, Y32A/Y40A mutants (Ras BRET sensor)",[2],only WT was significantly inhibited by Rasarfin
same,AngII-promoted BRET,[3],0.072 and 0.05667 and 0.08167 and 0.04433
same,"AngII-promoted BRET, Mean Diff. DMSO - Rasarfin",[3]; [5],0.011
same,AngII-promoted BRET,[4],0.1037 and 0.088 and 0.0995 and 0.056
same,"AngII-promoted BRET, Mean Diff. DMSO - Rasarfin",[4]; [5],0.006083
